Experimental data as given in ChEMBL document CHEMBL5038629, “Light-Triggered Fluorescence Self-Reporting Nitric Oxide Release from Coumarin Analogues for Accelerating Wound Healing and Synergistic Antimicrobial Applications” (J Med Chem, 2022).
The source made the active and inactive calls.

How the values were obtained:
[1] = tested on: Staphylococcus aureus; experiment: Inhibition of biofilm formation in methicillin-resistant Staphylococcus aureus assessed as biofilm dispersal effect at 10 uM incubated for 5 hrs followed by exposure to UV light irradiation for 1 min by crystal violet staining based analysis; format: functional; set-up: scale not given: the % may be the effect or the level left; details: time 301 min, 5.017 h
[2] = tested on: Staphylococcus aureus; experiment: Inhibition of biofilm formation in methicillin-resistant Staphylococcus aureus assessed as decrease in biofilm mass at 10 uM upon exposure to UV light irradiation and measured after 48 hrs by dilution plate coating method; format: functional; details: light or radiation study
[3] = tested on: Mus musculus; experiment: Acceleration of wound healing in methicillin-resistant Staphylococcus aureus infected CD1 mouse assessed as increase in wound healing rate using UV light-irradiated compound at 10 uM, sc on days 0, 3, 7 and 14 in presence of 10 uM levofloxacin; format: functional, organism-based; details: time 15.0 day
[4] = tested on: Mus musculus; experiment: Acceleration of wound healing in methicillin-resistant Staphylococcus aureus infected CD1 mouse assessed as boosted collagen deposition and granulation tissue in skin using UV light-irradiated compound at 10 uM, sc on days 0, 3, 7 and 14 in presence of levofloxacin and measured on day 14 by H and E staining based analysis; format: functional, organism-based; details: time 15.0 day
[5] = tested on: Staphylococcus aureus; experiment: Inhibition of biofilm formation in methicillin-resistant Staphylococcus aureus assessed as biofilm dispersal effect at 10 uM incubated for 5 hrs followed by exposure to UV light irradiation for 1 min in presence of levofloxacin by crystal violet staining based analysis; format: functional; set-up: scale not given: the % may be the effect or the level left; details: time 301 min, 5.017 h
[6] = NO releasing activity in CAN solvent upon exposure to UV light irradiation by fluorescence based analysis; format: functional
[7] = NO releasing activity in PBS buffer of 20% DMSO at 20 uM upon exposure to UV light irradiation by amperometric method; format: functional
[8] = NO releasing activity in DMK solvent upon exposure to UV light irradiation by fluorescence based analysis; format: functional
[9] = NO releasing activity in DMSO solvent upon exposure to UV light irradiation by fluorescence based analysis; format: functional
[10] = NO releasing activity in EA solvent upon exposure to UV light irradiation by fluorescence based analysis; format: functional
[11] = NO releasing activity in Tol solvent upon exposure to UV light irradiation by fluorescence based analysis; format: functional
[12] = NO releasing activity assessed as increase in fluorescence intensity at 420 nm upon exposure to UV light measured after 0 to 5 mins by fluorescence based analysis; format: functional; details: time 0-5 min
[13] = NO releasing activity assessed as NO release efficiency at 60 uM by Griess assay relative to NaNO2; format: functional
[14] = NO releasing activity upon exposure to UV light irradiation in presence of GSH by fluorescence based analysis; format: functional
[15] = tested on: RAW264.7; experiment: Induction of angiogenesis in mouse RAW264.7 cells assessed as increase in cell proliferation upto 60 uM upon exposure to UV light irradiation and measured after 8 hrs by CCK8 assay; format: functional, cell-based; details: dose microM <=60, time 8.0 hrs
[16] = tested on: L02; experiment: Cytotoxicity against human L02 cells assessed as reduction in cell viability upto 60 uM measured after 8 hrs by CCK8 assay; format: functional, cell-based; details: dose microM <=60, time 8.0 hrs
[17] = NO releasing activity upon exposure to UV light irradiation in presence of His by fluorescence based analysis; format: functional
[18] = NO releasing activity upon exposure to UV light irradiation at powers from 3 to 15 mW/cm2 by fluorescence based analysis; format: functional
[19] = NO releasing activity upon exposure to UV light irradiation at 50 to 70 degC measured after 4 to 8 hrs by fluorescence based analysis; format: functional; details: time 4-8 hrs
[20] = NO releasing activity upon exposure to UV light irradiation in presence of HClO by fluorescence based analysis; format: functional
[21] = NO releasing activity assessed as increase in fluorescence intensity upon exposure to UV light at 1 to 10 uM measured after 30 mins by fluorescence based analysis; format: functional; details: dose 1-10 µM
[22] = NO releasing activity assessed as increase in fluorescence intensity upon exposure to UV light at 0 to 18 uM by fluorescence based analysis; format: functional; details: dose 0-18 µM
[23] = tested on: Mus musculus; experiment: Induction of angiogenesis in methicillin-resistant Staphylococcus aureus infected CD1 mouse assessed as increase in CD31 surface expression in skin by measuring increase in green fluorescence intensity using UV light-irradiated compound at 10 uM, sc on days 0, 3, 7 and 14 in presence of levofloxacin and measured on day 14 by immunofluorescence staining based analysis; format: functional, organism-based; details: time 15.0 day
[24] = tested on: HUVEC; experiment: Induction of angiogenesis in human HUVEC cells assessed as increase in cell migration rate upon UV light irradiation and measured after 12 to 24 hrs by cell scratch test; format: functional, cell-based; details: time 12-24 hrs
[25] = tested on: HepG2; experiment: NO releasing activity in human HepG2 cells assessed as increase in red fluorescence intensity at 10 uM upon exposure to UV light irradiation for 10s by DAQ probe based fluorescence analysis; format: ADME, cell-based; details: hepg2, 10 s
[26] = NO releasing activity upon exposure to UV light irradiation in presence of Asp by fluorescence based analysis; format: functional
[27] = NO releasing activity assessed as NO release efficiency at 20 uM by Griess assay relative to NaNO2; format: functional
[28] = NO releasing activity upon exposure to UV light irradiation at pH 4 to 8 by fluorescence based analysis; format: functional
[29] = NO releasing activity upon exposure to UV light irradiation in presence of Phe by fluorescence based analysis; format: functional
[30] = tested on: L02; experiment: NO releasing activity in human L02 cells assessed as increase in red fluorescence intensity at 10 uM upon exposure to UV light irradiation for 10s by DAQ probe based fluorescence analysis; format: ADME, cell-based; details: l02, 10 s
[31] = tested on: Staphylococcus aureus; experiment: Antibacterial activity against methicillin-resisitant Staphylococcus aureus assessed as wrinkled bacterial membrane formation at 10 uM incubated for 5 hrs followed by exposure to UV light irradiation for 1 min in presence of levofloxacin by scanning electron microscopy; format: functional, organism-based; details: time 301.0 min
[32] = tested on: HUVEC; experiment: Cytotoxicity against human HUVEC cells assessed as reduction in cell viability upto 60 uM measured after 8 hrs by CCK8 assay; format: functional, cell-based; details: dose microM <=60, time 8.0 hrs
[33] = Stability of the compound in human L02 cells at 10 uM by DAQ probe based fluorescence analysis; format: ADME, cell-based; details: l02, 10 µM
[34] = Photolysis of compound in DMSO/PBS assessed as 4-methyl-7-(2-nitrobenzylamino)-2H-chromen-2-one and AMC formation along with NO release upon exposure to UV light and measured after 30 mins by HPLC analysis; format: functional
[35] = tested on: Mus musculus; experiment: Acceleration of wound healing in methicillin-resistant Staphylococcus aureus infected CD1 mouse assessed as boosted collagen deposition and granulation tissue in skin using UV light-irradiated compound at 10 uM, sc on days 0, 3, 7 and 14 and measured on day 14 by H and E staining based analysis; format: functional, organism-based; details: time 15.0 day
[36] = NO releasing activity assessed as NO release efficiency at 80 uM by Griess assay relative to NaNO2; format: functional
[37] = NO releasing activity in Diox-solvent upon exposure to UV light irradiation by fluorescence based analysis; format: functional
[38] = NO releasing activity at 20 uM upon exposure to UV light irradiation for 5 mins by EPR spectroscopy; format: functional
[39] = NO releasing activity upon exposure to UV light irradiation in presence of Cys by fluorescence based analysis; format: functional
[40] = NO releasing activity upon exposure to UV light irradiation in presence of Na2S by fluorescence based analysis; format: functional
[41] = Photolysis of compound in DMSO/PBS assessed as 4-methyl-7-(2-nitrobenzylamino)-2H-chromen-2-one and AMC formation along with NO release upon exposure to UV light by mass spectrometry; format: functional
[42] = NO releasing activity upon exposure to UV light irradiation in presence of Ser by fluorescence based analysis; format: functional
[43] = tested on: RAW264.7; experiment: Cytotoxicity against mouse RAW264.7 cells assessed as reduction in cell viability upto 60 uM measured after 8 hrs by CCK8 assay; format: functional, cell-based; details: dose microM <=60, time 8.0 hrs
[44] = NO releasing activity upon exposure to UV light irradiation in presence of Arg by fluorescence based analysis; format: functional
[45] = tested on: HUVEC; experiment: Induction of angiogenesis in human HUVEC cells assessed as increase in tube formation upon exposure to UV light irradiation measured after 24 hrs; format: functional, cell-based
[46] = NO releasing activity upon exposure to UV light irradiation in presence of […] by fluorescence based analysis; format: functional
[47] = NO releasing activity at 100 uM upon exposure to UV light irradiation by DAF-2 probe based fluorescence analysis; format: functional
[48] = tested on: Staphylococcus aureus; experiment: Inhibition of biofilm formation in methicillin-resistant Staphylococcus aureus assessed as increase in planktonic bacteria at 10 uM upon exposure to UV light irradiation and measured after 48 hrs by NB plate based imaging analysis; format: functional, organism-based
[49] = Toxicity in methicillin-resistant Staphylococcus aureus-infected CD1 mouse assessed as change in body weight using UV light-irradiated compound at 10 uM, sc on days 0, 3, 7 and 14; format: organism-based; details: in vivo, 360 h, time 15 day
[50] = NO releasing activity upon exposure to UV light irradiation in presence of NaSO4 by fluorescence based analysis; format: functional
[51] = NO releasing activity upon exposure to UV light irradiation in presence of Hcy by fluorescence based analysis; format: functional
[52] = tested on: L02; experiment: Induction of angiogenesis in human L02 cells assessed as increase in cell proliferation upto 60 uM upon exposure to UV light irradiation and measured after 8 hrs by CCK8 assay; format: functional, cell-based; details: dose microM <=60, time 8.0 hrs
[53] = NO releasing activity assessed as NO release efficiency at 100 uM by Griess assay relative to NaNO2; format: functional
[54] = NO releasing activity assessed as NO release efficiency at 40 uM by Griess assay relative to NaNO2; format: functional
[55] = tested on: Staphylococcus aureus; experiment: Inhibition of biofilm formation in methicillin-resistant Staphylococcus aureus assessed as decrease in biofilm mass at 10 uM upon exposure to UV light irradiation and measured after 48 hrs in presence of levofloxacin by dilution plate coating method; format: functional; details: light or radiation study
[56] = NO releasing activity upon exposure to UV light irradiation in presence of Ala by fluorescence based analysis; format: functional
[57] = tested on: Staphylococcus aureus; experiment: Inhibition of biofilm formation in methicillin-resistant Staphylococcus aureus assessed as increase in planktonic bacteria at 10 uM upon exposure to UV light irradiation and measured after 48 hrs in presence of levofloxacin by NB plate based imaging analysis; format: functional; set-up: scale not given: the % may be the effect or the level left
[58] = Stability of the compound in human HepG2 cells at 10 uM by DAQ probe based fluorescence analysis; format: ADME, cell-based; details: hepg2, 10 µM
[59] = NO releasing activity upon exposure to UV light irradiation in presence of Trp by fluorescence based analysis; format: functional
[60] = NO releasing activity in TCM solvent upon exposure to UV light irradiation by fluorescence based analysis; format: functional
[61] = NO releasing activity in IPA solvent upon exposure to UV light irradiation by fluorescence based analysis; format: functional
[62] = NO releasing activity assessed as NO release efficiency at 10 uM by Griess assay relative to NaNO2; format: functional
[63] = tested on: HUVEC; experiment: Induction of angiogenesis in human HUVEC cells assessed as increase in cell proliferation upto 60 uM upon exposure to UV light irradiation and measured after 8 hrs by CCK8 assay; format: functional, cell-based; details: dose microM <=60, time 8.0 hrs
[64] = NO releasing activity in MeOH solvent upon exposure to UV light irradiation by fluorescence based analysis; format: functional

C[C@H]1COc2c(N3CCN(C)CC3)c(F)cc3c(=O)c(C(=O)O)cn1c23.C[C@H]1COc2c(N3CCN(C)CC3)c(F)cc3c(=O)c(C(=O)O)cn1c23.O [LEVOFLOXACIN]
15%: Activity [1]
19%: inhibition at 10 µM [2]

Cc1cc(=O)oc2cc(N(Cc3ccccc3[N+](=O)[O-])N=O)ccc12
74%: Activity [5]
54%: inhibition at 10 µM [55]
Metabolite_Detected: Drug metabolism [25] | Drug metabolism [30]
28%: inhibition at 10 µM [2]
93%: Drug metabolism [53]
98.6%: Drug metabolism [54]
Stable: Stability [33] | Stability [58]
97.6%: Drug metabolism [36]
96.9%: Drug metabolism [13]
15%: Activity [1]
160%: Activity [57]
99.2%: Drug metabolism [27]
Non-Toxic: Activity [49]
99%: Drug metabolism [62]
Metabolite detected: Drug metabolism [6] | Drug metabolism [7] | Drug metabolism [8] | Drug metabolism [9] | Drug metabolism [10] | Drug metabolism [11] | Drug metabolism [12] | Drug metabolism [14] | Drug metabolism [17] | Drug metabolism [18] | Drug metabolism [19] | Drug metabolism [20] | Drug metabolism [21] | Drug metabolism [22] | Drug metabolism [26] | Drug metabolism [28] | Drug metabolism [29] | Drug metabolism [34] | Drug metabolism [37] | Drug metabolism [38] | Drug metabolism [39] | Drug metabolism [40] | Drug metabolism [41] | Drug metabolism [42] | Drug metabolism [44] | Drug metabolism [46] | Drug metabolism [47] | Drug metabolism [50] | Drug metabolism [51] | Drug metabolism [56] | Drug metabolism [59] | Drug metabolism [60] | Drug metabolism [61] | Drug metabolism [64]
active: Activity [3] | Activity [4] | Activity [15] | Activity [16] | Activity [23] | Activity [24] | Activity [31] | Activity [32] | Activity [35] | Activity [43] | Activity [45] | Activity [48] | Activity [52] | Activity [63]
